Source: PMC9962512, “Synthesis and Anti-Angiogenic Activity of Novel c(RGDyK) Peptide-Based JH-VII-139-1 Conjugates” (Pharmaceutics, 2023)
Like-named read-outs stand apart in the source and are kept apart here.

Columns and labels:
[1] = target: T1, human SRPK1 (Homo sapiens, UniProt Q96SB4); experiment: In vitro kinase assay (GST-SRPK1, GST-LBRNt(62-92) substrate, radioactive); format: biochemical; conditions: 25 μM ATP; mean ± SD of three experiments; read-out: IC50 (nΜ) for SRPK1
T1 construct: made in house; host or cells: bacteria (pGEX-2T vector)
T1 sequence (Q96SB4 whole entry): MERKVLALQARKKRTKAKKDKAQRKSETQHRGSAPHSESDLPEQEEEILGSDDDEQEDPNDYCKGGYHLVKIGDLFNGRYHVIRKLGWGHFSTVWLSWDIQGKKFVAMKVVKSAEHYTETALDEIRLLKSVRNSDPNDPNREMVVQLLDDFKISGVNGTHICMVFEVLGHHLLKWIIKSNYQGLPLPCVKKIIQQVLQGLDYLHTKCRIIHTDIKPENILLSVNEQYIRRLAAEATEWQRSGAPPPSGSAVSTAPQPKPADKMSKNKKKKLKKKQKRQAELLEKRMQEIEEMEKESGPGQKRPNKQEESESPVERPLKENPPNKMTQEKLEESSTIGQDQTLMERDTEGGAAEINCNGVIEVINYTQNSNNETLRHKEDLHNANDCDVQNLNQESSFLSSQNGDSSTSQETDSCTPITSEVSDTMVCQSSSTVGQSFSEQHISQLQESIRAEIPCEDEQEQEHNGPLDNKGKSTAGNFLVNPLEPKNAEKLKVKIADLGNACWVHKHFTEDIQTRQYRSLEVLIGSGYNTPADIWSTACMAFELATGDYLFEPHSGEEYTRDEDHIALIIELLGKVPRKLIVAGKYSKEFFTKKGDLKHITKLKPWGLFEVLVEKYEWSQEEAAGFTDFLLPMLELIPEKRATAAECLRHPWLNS
Protocol: The pGEX-2T bacterial expression vector (Amersham Biosciences GmbH, Freiburg, Germany) was used to construct plasmids that encode human SRPK1 and a fragment of the N-terminal domain of turkey LBR comprising amino acids 62–92 (LBRNt(62–92)). The GST-fusion proteins were produced in bacteria and purified using glutathione-Sepharose (Amersham Biosciences) according to the manufacturer’s instructions. Kinase assays were carried out in a total volume of 25 μL containing 0.5 μg GST-SRPK1, 1.5 μg GST-LBRNt(62–92) as substrate, 12 mM Hepes pH 7.5, 10 mM MgCl2, 25 μM ATP, and increasing concentrations of the inhibitors as indicated. In all assays, the final concentration of dimethyl sulfoxide (DMSO) was adjusted to 4%. Phosphorylated GST-LBRNt(62–92) was detected by autoradiography using Super RX (Fuji medical X-ray film,(Fujifilm Holdings Corporation, Tokyo, Japan)). Incorporated radioactivity was quantified by excising the radioactive bands from the SDS-PAGE gel and scintillation counting.

[2] = system: HeLa cells; experiment: cells; format: cell-based; conditions: 48 h; for TGI: total growth inhibition
Protocol: (§1) HeLa, MCF7, MDA-MB-231 and K562 cancer cell lines were provided by ATCC (American Type Culture Collection). Cells were incubated at 37 °C with 5% CO2. HeLa, MCF7 and MDA-MB-231 cells were maintained in DMEM, while K562 cells were maintained in RPMI medium, both supplemented with 10% (v/v) fetal bovine serum (FBS) and antibiotics/antimycotics.
(§2) HeLa, MCF7, MDA-MB-231 and K562 cells were seeded in 96-well plates (3 × 10^3 cells per well) and grown in medium supplemented with 10% FBS as monolayers at 37 °C in a 5% CO2 incubator. One day after seeding, cells were exposed to increasing concentrations of the inhibitors for 48 h. The viability of the cells was estimated by an (3-(4,5-imethylthiazol-2-yl)-2,5-diphenyltetrazolium bromide (MTT) metabolic assay as described previously, and the percentage growth inhibition (GI50, TGI, IC50) was calculated according to National Cancer Institute recommendations as referred to Leonidis et al.. Values shown represent the means ± SE of three independent experiments.

[3] = system: K562 cells; experiment: cells; format: cell-based; conditions: for TGI: total growth inhibition
Protocol: as §1, §2

[4] = system: MCF7 cells; experiment: cells; format: cell-based; conditions: for TGI: total growth inhibition
Protocol: as §1, §2

[5] = system: MDA-MB-231 cells; experiment: cells; format: cell-based; conditions: for TGI: total growth inhibition
Protocol: as §1, §2

[6] = MTT assay, summary over the cell panel; format: cell-based
Protocol: as §1, §2

[7] = Stability in human plasma; format: in vitro ADME; conditions: for half-life at 495 µg/mL: human, read-out: half-life t1/2
Protocol: First, 250 μg of (JH-VII-139-1)-c(RGDyK)-based conjugates were diluted in 5 μL DMSO and the mixture was added to 0.5 mL of human plasma. The mixtures were incubated at 37 °C. 50 μL of aliquot was removed at predetermined time points and quenched with 150 μL ice-cold acetonitrile (+0.1% formic acid). Then, the mixture was centrifuged at 10,000 rpm for 10 min. Then, 50 μL of supernatant was added to 50 μL of ultrapure water (+0.1% formic acid) and analyzed by LC-MS. Results are presented as the mean ± SD of three independent experiments.

[8] = buffer, pH 7.4
Protocol: (§3) The mixture was then incubated at 37 °C, samples were collected at predetermined time points (0, 1, 2, 3, 4, 5, 24 and 48 h), and analyzed by LC-MS. Results are presented as the mean ± of SD after repeating the experiment three times.

[9] = system: zebrafish Tg(kdrl:gfp) embryos; experiment: Zebrafish angiogenesis assay, intersegmental vessels (ISVs); format: in vivo; conditions: 10 μM, added 24 hpf, imaged 72 hpf
Protocol: The Tg(kdrl:gfp)^s843 [38] was used to measure angiogenesis. Zebrafish breeding was carried out according to the European Directive 2010/63 and the Recommended Guidelines for Zebrafish Husbandry Conditions.
Zebrafish Tg(kdrl:gfp)^s843 embryos were raised in E3 medium up to 24 hpf; then dechorinated and finally transferred to a 12-well plate (10 embryos per well). Each compound was dissolved in DMSO and then added in the wells at the following final concentrations: 10 μM JH-VII-139-1 and c(RGDyK), and 1.3 μM geo75, geo77, geo85, geo107. Treated embryos and control embryos (at the corresponding DMSO concentration) were kept at 28 °C and imaged at 72 hpf.
After anesthetizing embryos with 0.4% tricaine methanesulfonate (MS222), a fluorescent image was acquired using a Hamamatsu ORCA-Flash4.0LT digital camera. We used the total length of 8 intersegmental vessels (ISVs) per embryo and the width from each of the above ISVs was measured at three different points, i.e., the top, the middle, and the bottom point of each ISV, and then the average width was estimated. We measured the 8 ISVs that flank the end of the yolk extension. Length and widths were measured using the open-source software ImageJ 1.53a (http://imagej.nih.gov/ij (accessed on 30 May 2022)). A total of 30 embryos (4–7 per group) from independent experiments were measured. […]

[10] = system: α5β1 integrins; design: method as in PMID 28074920; conditions: α5β1 ref 25; cited from earlier work
[11] = Stability in Dulbecco's Modified Eagle Medium (+10% FBS); format: in vitro ADME; conditions: for half-life at 396 µg/mL: DMEM + 10% FBS, read-out: half-life t1/2
Protocol: Conjugates geo75, geo77, geo85 and geo107 (200 μg in 5 μL DMSO) were diluted in 0.5 mL DMEM (+10% fetal bovine serum) mixture and incubated at 37 °C. At predetermined time intervals, 50 μL of the mixture was removed and quenched with 150 μL water/acetonitrile/formic acid solution (100/100/0.1 volume ratio) and the sample was analyzed by LC-MS. Three independent experiments were carried out and the results are presented as the mean ± standard deviation.

[12] = physchem; conditions: buffer, pH 5.2
Protocol: as §3

[13] = physchem; conditions: buffer, pH 7.4
Protocol: as §3

[14] = system: HeLa, MCF-7, MDA-MB-231 and K562 cancer cells; experiment: MTT assay, summary over the cell panel; format: cell-based; conditions: HeLa, MCF-7, MDA-MB-231 and K562; 48 h; read-out: GI50 (cytostatic effect), range over compounds and cell lines
Protocol: as §1, §2

[15] = system: SRPK1; design: method as in PMID 29478907; conditions: SRPK1 ref 27; cited from earlier work
[16] = system: angiogenesis in AMD animal model; design: method as in PMID 29478907; conditions: AMD animal model ref 27; cited from earlier work
[17] = DMEM with 10% fetal bovine serum, 37 °C

Row | Structure (SMILES) | IC50 [1] | GI50 [2] | IC50 [2] | GI50 ([3]; 48 h) | IC50 ([3]; 48 h) | GI50 ([5]; 48 h) | IC50 ([5]; 48 h) | IC50 [6] | GI50 ([4]; 48 h) | IC50 ([4]; 48 h) | half-life at 495 µg/mL ([7]; 37 °C) | half-life t1/2 [8] | TGI ([2]; HeLa) | TGI ([3]; K562, 48 h) | TGI ([4]; MCF7, 48 h) | TGI ([5]; MDA-MB-231, 48 h) | inhibition of total width of ISVs [9] | half-life [12] | half-life at 396 µg/mL [11, 17] | half-life [13] | also measured
1 | N=C(N)NCCC[C@@H]1NC(=O)[C@H](CCCCN)NC(=O)[C@@H](Cc2ccc(O)cc2)NC(=O)[C@H](CC(=O)O)NC(=O)CNC1=O [c(RGDyK)] |  | 79 ± 2.2 µM | […] | […] | […] | […] | […] |  | […] | […] |  |  | […] | […] | […] | […] | non-significant trend |  |  |  | IC50 [10]: 0.236 ± 0.045 µM
2 | CCc1cc2c(cc1-c1cc[nH]n1)C(C)(C)c1[nH]c3cc(C#N)ccc3c1C2=O [JH-VII-139-1, 9-Ethyl-6,6-dimethyl-11-oxo-8-(1H-pyrazol-3-yl)-6,11-dihydro-5H-benzo[b]carbazole-3-carbonitrile] | 0.032 ± 0.0005 µM |  |  |  |  |  |  |  |  |  |  |  | 19 ± 0.2 μΜ | 15 ± 0.5 μΜ | 19 ± 0.3 μΜ | 21 ± 0.4 μΜ | non-significant trend |  |  |  | GI50 ([2]; Homo sapiens, HeLa, 50% growth inhibition, read-out: GI50): 8 ± 0.2 µM; IC50 ([2]; Homo sapiens, HeLa, cytotoxic effect, read-out: IC50): 14 ± 0.8 µM; GI50 ([3]; Homo sapiens, K562, 48 h, 50% growth inhibition, read-out: GI50): 8 ± 0.5 µM; IC50 ([3]; Homo sapiens, K562, 48 h, cytotoxic effect, read-out: IC50): 13 ± 0.3 µM; GI50 ([4]; Homo sapiens, MCF7, 48 h, 50% growth inhibition, read-out: GI50): 9 ± 0.2 µM; IC50 ([4]; Homo sapiens, MCF7, 48 h, cytotoxic effect, read-out: IC50): 8 ± 0.6 µM; GI50 ([5]; Homo sapiens, MDA-MB-231, 48 h, 50% growth inhibition, read-out: GI50): 11 ± 0.3 µM; IC50 ([5]; Homo sapiens, MDA-MB-231, 48 h, cytotoxic effect, read-out: IC50): 18 ± 0.5 µM; IC50 at 48 h ([6]; human, MDA-MB-231 and K562 cancer cells, HeLa, MCF-7, MDA-MB-231 and K562, 48 h, read-out: IC50 (cytotoxic effect), range over compounds and cell lines): 3 to 18 µM; GI50 [14]: 4 to 12 µM; half-life at 396 µg/mL ([11]; bovine, DMEM with 10% fetal bovine serum (cell-free), 37 °C): > 48 h; half-life at 495 µg/mL ([7]; plasma, 37 °C): > 48 h; IC50 [15]: 0.0011 µM; effect on angiogenesis [16]: blocks angiogenesis
3 | CCc1cc2c(cc1-c1ccn(C(=O)NCCOCCOCCNC(=O)N[C@@H](CCCCN)C(=O)NCCCC[C@@H]3NC(=O)[C@@H](Cc4ccc(O)cc4)NC(=O)[C@H](CC(=O)O)NC(=O)CNC(=O)[C@H](CCCNC(=N)N)NC3=O)n1)C(C)(C)c1[nH]c3cc(C#N)ccc3c1C2=O [geo107] |  |  |  |  |  |  |  |  |  |  | > 48 h |  |  |  |  |  |  | > 48 h | > 48 h | > 48 h | residual concentration (of initial concentration), lowest ([11]; cell media (DMEM), up to 48 h): ≥ 80%; residual concentration (of initial concentration), lowest ([7]; up to 48 h): ≥ 80%

Now from value to molecule, other results behind:

Row | IC50 [1] | GI50 [2] | IC50 [2] | GI50 ([3]; 48 h) | IC50 ([3]; 48 h) | GI50 ([5]; 48 h) | IC50 ([5]; 48 h) | IC50 [6] | Structure (SMILES) | GI50 ([4]; 48 h) | IC50 ([4]; 48 h) | half-life at 495 µg/mL ([7]; 37 °C) | half-life t1/2 [8] | TGI ([2]; HeLa) | TGI ([3]; K562, 48 h) | TGI ([4]; MCF7, 48 h) | TGI ([5]; MDA-MB-231, 48 h) | inhibition of total width of ISVs [9] | half-life [12] | half-life at 396 µg/mL [11, 17] | half-life [13] | also measured
4 | 0.03 ± 0.0017 µM | 5 ± 0.2 µM | 9 ± 0.2 µM | 12 ± 0.9 µM | 17 ± 0.5 µM | 8 ± 0.5 µM | 10 ± 0.3 µM | 3 to 18 µM | CCc1cc2c(cc1-c1ccn(C(=O)CCCC(=O)NCCCC[C@@H]3NC(=O)[C@@H](Cc4ccc(O)cc4)NC(=O)[C@H](CC(=O)O)NC(=O)CNC(=O)[C@H](CCCNC(=N)N)NC3=O)n1)C(C)(C)c1[nH]c3cc(C#N)ccc3c1C2=O [geo77] | 4 ± 0.4 µM | 3 ± 0.4 µM | 0.167 to 0.833 h | 1 h 44 min h min |  |  |  |  |  |  |  |  | 
5 | 0.035 ± 0.0011 µM |  |  |  |  |  |  | 3 to 18 µM | CCc1cc2c(cc1-c1ccn(C(=O)OCCOCCOCCOC(=O)NCCCC[C@@H]3NC(=O)[C@@H](Cc4ccc(O)cc4)NC(=O)[C@H](CC(=O)O)NC(=O)CNC(=O)[C@H](CCCNC(=N)N)NC3=O)n1)C(C)(C)c1[nH]c3cc(C#N)ccc3c1C2=O [geo75] |  |  | 0.183 h | 24h 15min h min |  |  |  |  |  | > 48 h |  |  | time after which almost completely hydrolyzed ([11]; DMEM, 37 °C): 9 h; time after which almost completely hydrolyzed ([7]; 37 °C): 1 h
6 | 0.042 ± 0.0019 µM | > 100 µM | > 100 µM | > 100 µM | > 100 µM | > 100 µM | > 100 µM |  | CCc1cc2c(cc1-c1ccn(C(=O)NCCOCCOCCNC(=O)NCCCC[C@@H]3NC(=O)[C@@H](Cc4ccc(O)cc4)NC(=O)[C@H](CC(=O)O)NC(=O)CNC(=O)[C@H](CCCNC(=N)N)NC3=O)n1)C(C)(C)c1[nH]c3cc(C#N)ccc3c1C2=O [geo85] |  |  | > 48 h |  |  |  |  |  |  | > 48 h | > 48 h | > 48 h | hydrolysis ([11]; DMEM, after 24 h): 10%; metabolised at 24 h, 495 µg/mL ([7]; after 24 h, read-out: hydrolysis): 10%
